The structures appear in SMILES notation.

Holding throughout (experiment): Kinase Inhibition Assay
For assay [1], the target named is Vascular endothelial growth factor receptor 2 (Rattus norvegicus, UniProt O08775). The protocol:
(§1) The enzyme was assayed with a biotinylated peptide substrate and test compounds in the presence of 10 uM ATP/[gamma-33P]ATP in a streptavidin coated FlashPlate (Perkin-Elmer, Boston, MA). Inhibition of the enzymatic activity due to the compound was measured by observing a reduced amount of 33P-gamma-ATP incorporated into the immobilized peptide relative to untreated controls. Linear regression analysis of the percent of inhibition by the test compound was used to calculate IC50 values.

In assay [2] the target is Cyclin-dependent kinase 4/G1/S-specific cyclin-D1 (Mus musculus, UniProt P30285). The protocol: as §1
Chain of Cyclin-dependent kinase 4/G1/S-specific cyclin-D1 (P25322 whole entry): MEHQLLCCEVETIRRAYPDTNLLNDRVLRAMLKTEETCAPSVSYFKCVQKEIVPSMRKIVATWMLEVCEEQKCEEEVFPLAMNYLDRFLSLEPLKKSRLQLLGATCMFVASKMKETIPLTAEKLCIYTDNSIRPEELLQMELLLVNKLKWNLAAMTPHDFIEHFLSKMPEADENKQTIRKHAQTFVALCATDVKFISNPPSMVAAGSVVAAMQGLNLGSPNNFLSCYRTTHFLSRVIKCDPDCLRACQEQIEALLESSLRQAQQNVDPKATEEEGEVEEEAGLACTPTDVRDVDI
Chain of Cyclin-dependent kinase 4/G1/S-specific cyclin-D1 (P30285 whole entry): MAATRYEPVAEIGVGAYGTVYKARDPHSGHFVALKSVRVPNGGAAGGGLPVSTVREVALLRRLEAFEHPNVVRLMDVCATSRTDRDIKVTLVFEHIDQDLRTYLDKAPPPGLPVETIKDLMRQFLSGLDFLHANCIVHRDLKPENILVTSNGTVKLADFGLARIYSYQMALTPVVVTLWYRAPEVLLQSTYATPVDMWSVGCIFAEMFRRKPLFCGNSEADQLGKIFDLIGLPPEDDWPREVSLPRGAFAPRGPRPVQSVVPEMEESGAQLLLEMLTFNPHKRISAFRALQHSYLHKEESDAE
Assay [3] has as its target Cyclin-dependent kinase/G2/mitotic-specific cyclin- 1 (Homo sapiens, UniProt P06493). As to conditions: pH 8; 30 °C. As to the method: as §1
In assay [4] the target is Cyclin-A2/Cyclin-dependent kinase 2 (Homo sapiens, UniProt P24941). As to the method:
as §1

Chain of Cyclin-dependent kinase/G2/mitotic-specific cyclin- 1 (P06493 whole entry): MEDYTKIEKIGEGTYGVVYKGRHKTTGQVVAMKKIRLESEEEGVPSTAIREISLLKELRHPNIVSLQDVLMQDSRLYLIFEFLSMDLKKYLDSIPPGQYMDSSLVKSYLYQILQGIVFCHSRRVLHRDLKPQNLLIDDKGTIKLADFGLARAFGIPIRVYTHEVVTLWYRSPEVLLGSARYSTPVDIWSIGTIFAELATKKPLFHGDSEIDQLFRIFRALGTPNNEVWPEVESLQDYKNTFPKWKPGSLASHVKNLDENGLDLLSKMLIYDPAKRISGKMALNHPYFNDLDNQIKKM
Chain of Cyclin-dependent kinase/G2/mitotic-specific cyclin- 1 (P14635 whole entry, further chain): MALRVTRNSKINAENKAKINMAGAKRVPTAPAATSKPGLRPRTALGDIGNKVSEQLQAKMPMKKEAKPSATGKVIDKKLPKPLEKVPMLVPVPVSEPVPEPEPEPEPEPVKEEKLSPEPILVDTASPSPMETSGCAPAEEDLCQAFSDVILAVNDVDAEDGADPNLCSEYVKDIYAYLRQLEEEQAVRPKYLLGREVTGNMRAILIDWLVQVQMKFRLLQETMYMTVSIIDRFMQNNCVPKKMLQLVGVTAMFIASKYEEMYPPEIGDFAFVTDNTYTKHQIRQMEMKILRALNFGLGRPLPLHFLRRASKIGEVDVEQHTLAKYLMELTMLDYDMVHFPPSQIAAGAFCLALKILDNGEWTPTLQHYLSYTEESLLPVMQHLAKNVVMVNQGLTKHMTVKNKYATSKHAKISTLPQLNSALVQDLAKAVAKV
Chain of Vascular endothelial growth factor receptor 2 (O08775 whole entry): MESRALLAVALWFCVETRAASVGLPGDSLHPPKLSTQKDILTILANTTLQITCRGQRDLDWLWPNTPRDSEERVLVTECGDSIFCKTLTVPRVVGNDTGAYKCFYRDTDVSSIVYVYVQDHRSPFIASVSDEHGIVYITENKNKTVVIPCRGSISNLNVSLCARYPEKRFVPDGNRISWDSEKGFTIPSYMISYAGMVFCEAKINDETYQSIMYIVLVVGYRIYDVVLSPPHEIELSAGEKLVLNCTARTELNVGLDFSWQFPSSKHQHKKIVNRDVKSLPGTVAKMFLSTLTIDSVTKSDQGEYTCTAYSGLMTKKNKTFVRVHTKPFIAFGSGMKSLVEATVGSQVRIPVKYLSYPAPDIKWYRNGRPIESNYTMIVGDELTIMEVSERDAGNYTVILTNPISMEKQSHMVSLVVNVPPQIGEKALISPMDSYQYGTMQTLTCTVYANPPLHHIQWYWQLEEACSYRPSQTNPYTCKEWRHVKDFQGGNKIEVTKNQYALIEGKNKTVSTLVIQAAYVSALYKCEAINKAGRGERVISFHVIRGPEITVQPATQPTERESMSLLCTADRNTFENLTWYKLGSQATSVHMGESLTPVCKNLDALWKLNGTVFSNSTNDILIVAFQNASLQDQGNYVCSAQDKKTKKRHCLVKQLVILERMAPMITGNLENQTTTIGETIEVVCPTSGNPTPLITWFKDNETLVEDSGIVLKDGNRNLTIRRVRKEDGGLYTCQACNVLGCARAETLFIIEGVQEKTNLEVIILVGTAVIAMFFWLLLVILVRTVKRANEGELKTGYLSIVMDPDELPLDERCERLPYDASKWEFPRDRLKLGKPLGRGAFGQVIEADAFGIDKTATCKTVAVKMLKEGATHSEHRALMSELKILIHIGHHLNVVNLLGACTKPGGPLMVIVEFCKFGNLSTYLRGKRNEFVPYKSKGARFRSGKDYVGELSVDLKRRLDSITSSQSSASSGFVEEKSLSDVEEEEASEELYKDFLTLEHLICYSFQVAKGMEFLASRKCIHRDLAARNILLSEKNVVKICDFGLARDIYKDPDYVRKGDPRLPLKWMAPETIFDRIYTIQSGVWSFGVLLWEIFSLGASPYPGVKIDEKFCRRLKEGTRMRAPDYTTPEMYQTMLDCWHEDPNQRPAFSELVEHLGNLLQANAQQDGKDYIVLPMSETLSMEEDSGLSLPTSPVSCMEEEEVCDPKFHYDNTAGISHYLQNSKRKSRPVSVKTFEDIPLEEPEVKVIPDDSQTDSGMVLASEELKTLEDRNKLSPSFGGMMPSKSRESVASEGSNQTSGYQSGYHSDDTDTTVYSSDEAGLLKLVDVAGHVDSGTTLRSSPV

In general, IC50 refers to the concentration needed to halve the response being measured. In the case of `Cc1ccc(F)c(C(=O)n2nc(Nc3ccc(S(N)(=O)=O)cc3)nc2N)c1F` [4-({5-amino-1-[(2,6-difluoro-3-methylphenyl)carbonyl]-1H-1,2,4-triazol-3-yl}amino)benzene-1-sulfonamide], the concentration for half-maximal inhibition (IC50) in assay [1] turned out to be 510 nM; in assay [2], 190 nM; in assay [3], 8 nM; in assay [4], 0.3 nM.
Turning to `Nc1nc(Nc2ccc(S(N)(=O)=O)cc2)nn1C(=O)c1c(F)ccc(F)c1F` [4-[[5-Amino-1-(2,3,6-trifluorobenzoyl)-1H-1,2,4-triazol-3-yl]amino]-benzenesulfonamide], in assay [3], the IC50 came to 3.2 nM.

Source of the values: BindingDB's records for doi:10.1021/jm050267e (Johnson & Johnson Pharmaceutical, 2005).
